Here are results for 23 compounds from patent US20250333405A1, “ANTAGONISTS OF GPR39 PROTEIN” (VASOCARDEA, INC., priority 2024, published 2025).

Each structure is given as a SMILES string. Counter-ions that a name gives are not always drawn.

The experiment concerns the target T1, human GPR39 receptor (Homo sapiens, UniProt O43194).
T1 construct: PC3 Cells, Expressing the Endogenous Human GPR39 Receptor; endogenous in cells; host or cells: PC3 (human prostate adenocarcinoma) cells
T1 sequence (O43194 1-453): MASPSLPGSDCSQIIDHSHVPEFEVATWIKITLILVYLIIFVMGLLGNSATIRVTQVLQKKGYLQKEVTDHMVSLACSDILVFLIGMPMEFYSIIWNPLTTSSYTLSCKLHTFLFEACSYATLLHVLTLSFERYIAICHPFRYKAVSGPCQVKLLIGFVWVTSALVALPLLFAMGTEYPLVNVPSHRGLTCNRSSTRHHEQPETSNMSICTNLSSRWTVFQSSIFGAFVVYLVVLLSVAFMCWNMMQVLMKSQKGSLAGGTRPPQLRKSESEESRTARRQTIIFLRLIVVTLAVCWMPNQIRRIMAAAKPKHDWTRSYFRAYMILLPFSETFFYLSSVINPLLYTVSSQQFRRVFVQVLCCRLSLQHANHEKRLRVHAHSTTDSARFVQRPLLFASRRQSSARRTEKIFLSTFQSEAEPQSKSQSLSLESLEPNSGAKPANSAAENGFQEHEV
Nature of the experiment: Intracellular calcium response (FLIPR, Calcium-6) in PC3 cells, antagonism of agonist C3 (TC-G 1008) at EC90. Format: cell-based. The following applies: functional pKi (-Log10Ki) by modified Cheng-Prusoff from IC50; PC3 cells endogenously expressing human GPR39; 30 μM ZnCl2; agonist C3 (TC-G 1008) at EC90 1.5 μM; read-out: fpKi activity. As for the experimental part: Measurement of Intracellular Calcium Response in PC3 Cells, Expressing the Endogenous Human GPR39 Receptor
Human prostate adenocarcinoma (PC3) cells endogenously expressing human GPR39 receptor were seeded into black walls clear-base 384-well plates at a density of 7,500 cells per well in DMEM (Low Glucose) supplemented with 10% heat-inactivated foetal bovine serum and 1% of Pen/Strep and grown overnight at 37° C., 5% CO2. After washing with assay buffer (20 mM HEPES, 137 mM NaCl, 5.4 mM KCl, 10 mM glucose, 0.8 mM MgSO4, 1.3 mM CaCl2), 0.3 mM Na2HPO4, 0.4 mM KH2PO4 4.2 mM NaHCO3, pH 7.4), cells were incubated with Calcium-6 probe (Molecular Devices) at 37° C. for 2 h and then equilibrated at RT for 30 minutes on metal block. The fluorescence was measured in real time by Fluorometric Imaging Plate Reader (FLIPR TETRA, Molecular Devices) (excitation wavelength at 470-495 nm, emission wavelength at 515-575 nm). Compounds of invention were serially diluted in neat DMSO at 1000 fold concentrations and plated into 384-well plates and then 200-fold diluted in assay buffer containing 150 μM ZnCl2 (30 μM final concentration) and 1.1% DMSO (0.32% final concentration). A dual addition FLIPR protocol was used which included a first addition of compounds 200-fold diluted in Assay Buffer containing 150 μM ZnCl2 and 1.1% DMSO and then after 10 minutes a second addition of a submaximal concentration of the hGPR39 receptor agonist, C3 (Tocris, TC-G 1008) at EC90 (concentration producing 90% of the maximal response) value of 1.5 μM. Fluorescence was monitored throughout the run assay. The peak of Ca2+ stimulation (baseline subtracted) was expressed as percentage of the maximal inhibition of the EC90 C3 response and was plotted versus the concentration of test compound. Curve fitting and IC50 estimations are carried out using a four-parameter logistic model using XLfit Software. […] An fpKi less than 5.2 is reported as “+/−”. An fpKi ranging from 5.2 to 5.9 is reported as “+”. An fpKi from 6.0 to 6.5 is reported as “++”. An fpKi from 6.6 to 7.2 is reported as “+++”. An fpKi equal to or greater than 7.3 is reported as “++++”.
A general note: A change in cytosolic calcium serves as a functional read-out for many receptors and channels.
`C[C@@H]1CN(C(=O)c2ccc(NC(=O)C3CC3)cc2N2CCCC2)C[C@@H](C)O1` (racemic) [Example 4, N-[4-[(trans)-2,6-dimethylmorpholine-4-carbonyl]-3-pyrrolidin-1-ylphenyl]cyclopropanecarboxamide]: the Ki is 1260 to 6310 nM.
`Cc1cc(Nc2ccc(C(=O)N3CCN(C)CC3c3ccccc3)c(N3CCCC3)c2)on1` (racemic) [Example 18, [4-[(3-methyl-1,2-oxazol-5-yl)amino]-2-pyrrolidin-1-ylphenyl]-(4-methyl-2-phenylpiperazin-1-yl)methanone]: the Ki lay in the range of 1260 to 6310 nM.
Under `CC(C)n1ccc(-c2cc(NC(=O)C3CC3)ccc2C(=O)N2CCN(C)CC2c2ccccc2)n1` (racemic) [Example 30, N-[4-(4-methyl-2-phenylpiperazine-1-carbonyl)-3-(1-propan-2-ylpyrazol-3-yl)phenyl]cyclopropanecarboxamide] stands 316 to 1000 nM.
The value for `CN1CCN(C(=O)c2ccc(NC(=O)C3CC3)cc2-c2cnc(C(F)(F)F)s2)C(c2ccccc2)C1` (racemic) [Example 31, N-[4-(4-methyl-2-phenylpiperazine-1-carbonyl)-3-[2-(trifluoromethyl)-1,3-thiazol-5-yl]phenyl]cyclopropanecarboxamide] was more than 6310 nM; that for `Cc1ncc(-c2cc(NC(=O)C3CC3)ccc2C(=O)N2CCN(C)CC2c2ccccc2)s1` (racemic) [Example 32, N-[4-(4-methyl-2-phenylpiperazine-1-carbonyl)-3-(2-methyl-1,3-thiazol-5-yl)phenyl]cyclopropanecarboxamide] was 1260 to 6310 nM; that for `CN1CCN(C(=O)c2ccc(NC(=O)C3CC3)cc2-c2ccc(C(F)(F)F)s2)C(c2ccccc2)C1` (racemic) [Example 33, N-[4-(4-methyl-2-phenylpiperazine-1-carbonyl)-3-[5-(trifluoromethyl)thiophen-2-yl]phenyl]cyclopropanecarboxamide] was more than 6310 nM.
Under `Cc1ccc(-c2cc(NC(=O)C3CC3)ccc2C(=O)N2CCN(C)CC2c2ccccc2)s1` (racemic) [Example 34, N-[4-(4-methyl-2-phenylpiperazine-1-carbonyl)-3-(5-methylthiophen-2-yl)phenyl]cyclopropanecarboxamide] stands 63.1 to 251 nM.
For the compound `CN1CCN(C(=O)c2ccc(NC(=O)C3CC3)cc2N2CCCC2)C(c2ccccc2C(F)(F)F)C1` (racemic) [Example 106, N-[4-[4-methyl-2-[2-(trifluoromethyl)phenyl]piperazine-1-carbonyl]-3-pyrrolidin-1-ylphenyl]cyclopropanecarboxamide], the Ki lay in the range of 316 to 1000 nM.
Take `CN1CCN(C(=O)c2ccc(NC(=O)C3CC3)cc2N2CCCC2)C(c2cccc(C#N)c2)C1` (racemic) [Example 107, N-[4-[2-(3-cyanophenyl)-4-methylpiperazine-1-carbonyl]-3-pyrrolidin-1-ylphenyl]cyclopropanecarboxamide]: the Ki was in the range of 63.1 to 251 nM.
Take `Cc1ccc(C2CN(C)CCN2C(=O)c2ccc(NC(=O)C3CC3)cc2N2CCCC2)cc1` (racemic) [Example 109, N-[4-[4-methyl-2-(4-methylphenyl)piperazine-1-carbonyl]-3-pyrrolidin-1-ylphenyl]cyclopropanecarboxamide]: the Ki lay within 63.1 to 251 nM.
In the case of `Cc1cc(Cl)cc(C2CN(C)CCN2C(=O)c2ccc(NC(=O)C3CC3)cc2N2CCCC2)c1` (racemic) [Example 110, N-[4-[2-(3-chloro-5-methylphenyl)-4-methylpiperazine-1-carbonyl]-3-pyrrolidin-1-ylphenyl]cyclopropanecarboxamide], the Ki was not above 50.1 nM.
Turning to `Cc1cccc(C2CN(C)CCN2C(=O)c2ccc(NC(=O)C3CC3)cc2N2CCCC2)c1` (racemic) [Example 111, N-[4-[4-methyl-2-(3-methylphenyl)piperazine-1-carbonyl]-3-pyrrolidin-1-ylphenyl]cyclopropanecarboxamide], the Ki lay within 63.1 to 251 nM.
The value for `Cc1nnc(-c2ccc(C(=O)N3CCC(F)(F)CC3)c(-c3ccn(C(C)C4CC4)n3)c2)[nH]1` (single isomer, unassigned) [Example 57a, [2-[1-(1R or 1S-cyclopropylethyl)pyrazol-3-yl]-4-(5-methyl-4H-1,2,4-triazol-3-yl)phenyl]-(4,4-difluoro-1-piperidyl)methanone] was not above 50.1 nM; that for `Cc1cc(Cl)cc(C2CN(C)CCN2C(=O)c2ccc(NC(=O)C3CC3)cc2N2CCCC2)c1` (single isomer, unassigned) [Example 110a, N-[4-[2S or 2R-(3-chloro-5-methylphenyl)-4-methylpiperazine-1-carbonyl]-3-pyrrolidin-1-ylphenyl]cyclopropanecarboxamide hydrochloride] was not above 50.1 nM; that for `Cc1cc(Cl)cc(C2CN(C)CCN2C(=O)c2ccc(NC(=O)C3CC3)cc2N2CCCC2)c1` (single isomer, unassigned) [Example 110b, N-[4-[2S or 2R-(3-chloro-5-methylphenyl)-4-methylpiperazine-1-carbonyl]-3-pyrrolidin-1-ylphenyl]cyclopropanecarboxamide hydrochloride] was 1260 to 6310 nM.
Turning to `Cc1nnc(-c2ccc(C(=O)N3CCN(C)CC3c3ccccc3)c(N3CCC(C(C)C)C3)c2)[nH]1` (single isomer, unassigned) [Example 125a, (4-methyl-2-phenylpiperazin-1-yl)-[4-(5-methyl-4H-1,2,4-triazol-3-yl)-2-(3-propan-2-ylpyrrolidin-1-yl)phenyl]methanone], the Ki is 316 to 1000 nM.
On to `Cc1nnc(-c2ccc(C(=O)N3CCN(C)CC3c3ccccc3)c(N3CCC(C(C)C)C3)c2)[nH]1` (single isomer, unassigned) [Example 125b, (4-methyl-2-phenylpiperazin-1-yl)-[4-(5-methyl-4H-1,2,4-triazol-3-yl)-2-(3-propan-2-ylpyrrolidin-1-yl)phenyl]methanone], for which the Ki was not above 50.1 nM.
Regarding `Cc1nnc(-c2ccc(C(=O)N3CCN(C)CC3c3ccccc3)c(N3CCC(C(C)C)C3)c2)[nH]1` (single isomer, unassigned) [Example 125c, (4-methyl-2-phenylpiperazin-1-yl)-[4-(5-methyl-4H-1,2,4-triazol-3-yl)-2-(3-propan-2-ylpyrrolidin-1-yl)phenyl]methanone], the Ki was in the range of 63.1 to 251 nM.
Under `Cc1nnc(-c2ccc(C(=O)N3CCN(C)CC3c3ccccc3)c(N3CCC(C(C)C)C3)c2)[nH]1` (single isomer, unassigned) [Example 125d, (4-methyl-2-phenylpiperazin-1-yl)-[4-(5-methyl-4H-1,2,4-triazol-3-yl)-2-(3-propan-2-ylpyrrolidin-1-yl)phenyl]methanone] stands not above 50.1 nM; under `O=C(Nc1ccc(C(=O)N2CCCC2c2ccccc2)c(N2CCCC2)c1)C1CC1` (centres unmarked) [Example 1, N-[4-(2-phenylpyrrolidine-1-carbonyl)-3-pyrrolidin-1-ylphenyl]cyclopropanecarboxamide], 1260 to 6310 nM.
Under `O=C(Nc1ccc(C(=O)N2CCC(c3ccccc3)C2)c(N2CCCC2)c1)C1CC1` (centres unmarked) [Example 2, N-[4-(3-phenylpyrrolidine-1-carbonyl)-3-pyrrolidin-1-ylphenyl]cyclopropanecarboxamide] stands 1260 to 6310 nM.
The value for `O=C(Nc1ccc(C(=O)N2CCC3(COC3)C2)c(N2CCCC2)c1)C1CC1` [Example 3, N-[4-(2-oxa-7-azaspiro[3.4]octane-7-carbonyl)-3-pyrrolidin-1-ylphenyl]cyclopropanecarboxamide] was 1260 to 6310 nM; that for `CC1CN(C(=O)c2ccc(NC(=O)C3CC3)cc2N2CCCC2)CC(C)S1(=O)=O` (centres unmarked) [Example 5, N-[4-(2,6-dimethyl-1,1-dioxo-1,4-thiazinane-4-carbonyl)-3-pyrrolidin-1-ylphenyl]cyclopropanecarboxamide] was more than 6310 nM.
